Source: US20090124579A1, “Systems and Methods For Determination of Compounds for Stimulation or Inhibition of Neocalcification” (UNIVERSITY OF SOUTH CAROLINA, priority 2007, published 2009)

Columns and labels:
matrix vesicles (MV) = test: Mineralization of matrix vesicles (MV) incubated in synthetic cartilage lymph (SCL), microplate-based biomineralization assay; format: biochemical, chicken
Experimental: Zn^2+ causes Anx-5 to bind to acidic phospholipids with even higher affinity than does Ca^2+; however, its effect is very different.
(§1) Mineral formation was measured by incubating MVs (40 μg protein/ml) or complex (60 μg/ml) in synthetic cartilage lymph and assayed by a microplate-based biomineralization modeling system and assay as described herein. MVs were isolated from chicken GP cartilage. The PS.Ca.Pi complex was synthesized from emulsions of PS prepared by sonication in a synthetic intracellular phosphate buffer. Where indicated, pure native placental human annexin 5 (Anx-H5) was added.
(§2) Incubation was in pH 7.5 SCL at 37° C., which follows a characteristic sigmoid pattern in which a definable lag period precedes discernible mineral formation. There then follows a period of rapid mineral formation, a transient period when the rate declines, and an extended period at a progressively slower rate.

Anx-A5 Ca^2+ channel = target: T1, Anx-A5 Ca^2+ channel (Gallus gallus, UniProt P17153); test: Ca^2+ channel currents of MV or purified Anx-A5 fused with planar PS.PE (1:1) bilayers; format: biochemical, avian; details: MV or purified Anx-A5 in planar PS.PE (1:1) bilayers
T1 construct: from tissue; host or cells: avian cartilage
Experimental: To determine if the inhibitory effect of Zn^2+ on MV calcification was due to interaction with Anx-A5, experiments were conducted to investigate the nature of the MV Ca^2+ channel. […] When MVs or purified Anx-A5 were fused with planar PS.PE (1:1) bilayers, a multiconductance Ca^2+ channel was evident, as shown in FIG. 6A. […] The finding that Anx-A5 Ca^2+ channel gating is modulated by Zn^2+ raised the possibility that it may be an important regulator of MV Ca^2+ channel activity in vivo. Thus, it was desirable to determine how Anx-5 helps promote MV mineralization and how Zn^2+ affects the structure of Anx-A5.

Anx-H5-containing ACP = target: T2, Anx-H5-containing ACP (Homo sapiens, UniProt P08758); test: Mineral formation by Anx-H5-containing ACP in SCL; format: biochemical; details: low levels (5 μM) of Zn^2+ in SCL
T2 sequence (P08758 2-320 limits assumed): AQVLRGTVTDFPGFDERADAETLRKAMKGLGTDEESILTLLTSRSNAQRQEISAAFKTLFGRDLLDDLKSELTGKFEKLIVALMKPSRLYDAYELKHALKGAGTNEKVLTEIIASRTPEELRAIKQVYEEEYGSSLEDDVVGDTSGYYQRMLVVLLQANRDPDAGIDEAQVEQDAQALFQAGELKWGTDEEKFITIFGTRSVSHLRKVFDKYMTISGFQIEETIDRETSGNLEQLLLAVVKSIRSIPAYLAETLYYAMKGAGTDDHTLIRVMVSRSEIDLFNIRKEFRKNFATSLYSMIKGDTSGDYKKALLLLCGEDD

ACP = details: low levels of Zn^2+
[1] = system: PS.PE.Ca.Pi and PS.Ca.Pi complexes; test: Mineral formation by synthetic PS and PE containing Ca.Pi complexes in SCL; format: biochemical
Experimental: FIG. 15 illustrates the effect of Anx-H5 on mineral formation by synthetic PS and PE containing Ca.Pi complexes as determined through in vitro modeling of the system. Mineralization was measured by incubating the various complexes as shown (about 50 μg/ml) in SCL using a microplate-based biomineralization assay system. The complexes were prepared as described above in Example 3. Emulsions of PS or PS.PE (1:1) were generated by sonication to generate approximately 60 nm vesicles. Anx-H5 was added before CaCl2 was titrated to form the complex.

PS.Ca.Pi complex = test: Mineral formation by synthetic PS.Ca.Pi complex seeded into SCL, microplate-based biomineralization assay; format: biochemical
Experimental: as §1, §2
Results are illustrated in FIGS. 9A and 9B. […] To document that the effect of avian Anx-A5 could be equally matched by human Anx-H5, the kinetics of mineral formation were examined when both avian MV and the Mg^2+-containing PS.Ca.Pi complex were seeded into SCL in the absence and presence of purified native human placental Anx H5. […]

[2] = target: T3, Anx-H5.PS.Ca.Pi complexes (Homo sapiens, UniProt P08758); test: Kinetics of mineralization of Anx-H5 containing nucleators with or without phosphoserine; format: biochemical; details: 100 μM phosphoserine; both Anx-H5-containing ACP and PS.Ca.Pi complexes
T3 sequence (P08758 2-320 limits assumed): T2 sequence (P08758 2-320 limits assumed)
Excerpt: Phosphoserine was examined as a test compound. Phosphoserine can occupy PS head-group binding sites in Anx-H5, acting as a competitive inhibitor of PS binding. […] Since Anx-H5 trimer formation occurs only on phospholipid bilayers, phosphoserine competes for PS binding sites in Anx-H5, interfering with trimer formation, and thereby inhibiting de novo mineralization.
FIG. 18 illustrates the results of in vitro assays showing the delay of onset of mineralization of Anx-H5 containing nucleators by incorporation of O-phospho-L-serine

c1cnc2c(c1)ccc1cccnc12 [1,10-phenanthroline, reference compound]
ability of Zn^2+-inhibited MV to mineralize (matrix vesicles (MV); metal ion chelator added to Zn^2+-inhibited MV): restored the ability to mineralize

[Zn+2] [Zn^2+, zinc]
MV mineralization (matrix vesicles (MV); low levels of Zn^2+ (5 μM) in SCL): completely inhibit | Ca^2+ currents (Anx-A5 Ca^2+ channel): blocked | mineral formation by Anx-H5-containing ACP (Anx-H5-containing ACP): marked inhibition | ACP-induced mineral formation (ACP): weak inhibition

phosphatidylethanolamine [PE, reference compound]
ability of PS.Ca.Pi to nucleate mineral formation ([1]; equimolar amounts incorporated into PS.Ca.Pi (PS.PE 1:1)): profound inhibition

Anx-H5: pure native placental human annexin 5
ability of MV to induce and propagate mineral formation (matrix vesicles (MV); Anx-H5 added to freshly isolated MV): significantly enhanced | mineral formation induced by protein alone (PS.Ca.Pi complex; Anx-H5 by itself added to SCL, without PS): failed to induce any mineral formation | effect on PS.PE.Ca.Pi-induced mineralization ([1]; Anx-H5 incorporated into PS.PE.Ca.Pi complex): overcome this inhibitory effect of PE | effect on mineral formation of incorporation into PS.Ca.Pi complex ([1]; complexes about 50 μg/ml in SCL): obvious stimulatory effect

N[C@@H](COP(=O)(O)O)C(=O)O [phosphoserine, O-phospho-L-serine]
time needed for onset of mineralization [2]: almost tripling

B1: Anx-A5: avian annexin 5 (avian cartilage) (protein, UniProt P17153 1-321, looked up)
Annexin A5: MAKYTRGTVTAFSPFDARADAEALRKAMKGMGTDEETILKILTSRNNAQRQEIASAFKTLFGRDLVDDLKSELTGKFETLMVSLMRPARIFDAHALKHAIKGAGTNEKVLTEILASRTPAEVQNIKQVYMQEYEANLEDKITGETSGHFQRLLVVLLQANRDPDGRVDEALVEKDAQVLFRAGELKWGTDEETFITILGTRSVSHLRRVFDKYMTISGFQIEETIDRETSGDLEKLLLAVVKCIRSVPAYFAETLYYSMKGAGTDDDTLIRVMVSRSEIDLLDIRHEFRKNFAKSLYQMIQKDTSGDYRKALLLLCGGDDE
activation of PS.Ca.Pi complex (PS.Ca.Pi complex; complex prepared from Mg^2+-containing phosphate buffer): synergistically activates
